Assay results taken from patent publication US20170151278A1, “T[…] RELEASING SYSTEM” (priority 2014, published 2017).

Experiments:
[1] = CO release from CORM-2 suspension, amperometric detection in a sealed flask, triggered by Na2SO3; assay type: physicochemical
From the text: An Erlenmeyer flask purchased from Gebr. Rettberg (Gottingen, Germany) was used as reaction space. For insertion of the CO sensor and to seal the reaction space, a conically tapered joint from Schott Medica (Wertheim, Germany) was equipped with a glass guide tube for an electric wire. As a prerequisite for cross referencing with calibration gas, a single-bore stopcock was connected to the Erlenmeyer flask as well as to the conically tapered joint. The integrated CO sensor of the “Ei207D” CO detector (Ei Electronics, Shannon, Ireland) was removed and externally connected using a “Wire Wrap” 0.404 mm^2 wire (Kabeltronik, Denkendorf, Germany) linked with a 1.3 mm accessory shoe (Vogt AG, Lostorf, Switzerland). The wire was glued into the guide tube with “UHU plus endfest” epoxide resin (UHU, Bũhl, Germany) to seal the system. On-line videos were collected monitoring the detector with USB webcams with the Eyeline video surveillance software (NCH Software, Canberra, Australia).
The CO release from CORM-2 was triggered by Na2SO3 and amperiometrically detected. For that, 4.3 mg CORM-2 were placed in the Erlenmeyer flask filled with 15 ml Millipore water and stirred at 130 rpm (Variomag Telesystem, Thermo Scientific, MA). After 25 minutes, 10 mg Na2SO3 were added to the reaction space. CO release in ppm as read from the detector of each system was calibrated with 100 ppm CO calibration gas (diluted in air; from Real Gas (Martinsried, Germany) and normalized, accordingly (see FIG. 1 for results).
A concentration series of CO was generated by transferring different amounts of CORM-2 into 25 mL of a stirred (130 rpm) 333 mg/L aqueous Na2SO3 solution. CO release [ppm] after 60-80 minutes was plotted against the amount of CORM-2 [mg] placed into the system. Following this procedure, CO release [ppm] is expressed as amount of CORM-2 [mg], with one CORM-2 equivalent being defined as the amount of CO released per milligram CORM-2 after 60-80 minutes and when exposed to the experimental conditions described in this section (see FIG. 2B for results). CO release from CORM-2 expressed in CORM-2 equivalents [mg] followed a linear pattern (y=0.0192+1.0199x; r^2>0.99; n=1 for 14 independent measurements).
CO data reported in the example is calculated from the corresponding release from CORM-2 equivalents and if reported for CORM-A1, calculated using linear regression. […] Therefore, CO loss by and from the system was quantified and basis for data correction. For the correction, the loss by and from the system was recorded and added to the data as read from the detector (vide infra). For assessment of CO loss and data correction, CO was generated from CORM-2 in presence of Na2SO3 with stirring at 130 rpm, until reaching a value of approximately 800 ppm. At this point the stirring was stopped. CO loss [ppm] was recorded when a value of 720 ppm was reached and followed an exponential decline (y=717.5*e−0.145x; r^2>0.99; n=5; see FIGS. 3A and 3B for results).

[2] = CO release from CORM-2 suspension in Na2SO3 solution as a function of ionic strength; assay type: physicochemical; settings: n=3
Method: Experiments assessing the impact of the release medium on CO release (see FIG. 5A, 5B) were done in comparison to control experiments, within which 12 mg coated Na2SO3 crystals were measured in simulated gastric fluid without enzymes to control for possible detector interference with sulfites (interference was not observed with these experimental conditions; data not shown). Experiments assessing the impact of the coating procedure on CO release were done in comparison to control experiments, within which 3 mg CORM-2 was suspended in 25 mL of 0.333 g/L Na2SO3 solution (see FIG. 6 for results). In another set of control experiments, the impact of the ionic strength of the release medium and the impact of the salt with which the ionic strength was set (using sodium chloride solutions to set ionic strengths of 0.88 mol/L and 1.8 mol/L, respectively, and magnesium chloride to set an ionic strengths of 1.26 mol/L) on CO release was studied using CORM-2 suspensions. For that, CORM-2 was exposed to 25 mL of 0.333 g/L Na2SO3 in the appropriate release medium (for results, see FIG. 7).

SMILES: [C-]#[O+].[C-]#[O+].[C-]#[O+].[C-]#[O+].[C-]#[O+].[C-]#[O+].[Cl][Ru][Cl].[Cl][Ru][Cl] [CORM-2, Tricarbonyldichlororuthenium(II) dimer]
- CO release of CORM-2 suspended in water ([1]; 4.3 mg CORM-2 in 15 ml water, before Na2SO3 was added): no detectable CO release
- time to complete CO release after Na2SO3 was added ([1]; 10 mg Na2SO3 added after 25 min): ≤ 25 min
- CO release reached within the time frame ([1]; 60-80 minutes in 25 mL of 333 mg/L aqueous Na2SO3, stirred at 130 rpm): > 90%
- time to half maximal CO release ([1]; CORM-2 suspension control, 3 mg in 25 mL of 0.333 g/L Na2SO3): 20 min
- CO release plateau ([1]; after 40 minutes, Na2SO3 triggered): 550 ppm
- time at which CO release plateaus (corrected data) ([1]; sulfite triggered, corrected for CO loss): approximately 140 minutes
- reduction of CO release ([2]; ionic strength 0.88 mol/L set with NaCl, compared with 0.008 mol/L): 26±9%
- reduction of CO release ([2]; ionic strength 1.26 mol/L set with MgCl2): 50±3%
- reduction of CO release ([2]; ionic strength 1.8 mol/L set with NaCl): 53±6%
